In PubChem BioAssay AID2060611 (Molecular Pharmacology Branch, DTP, NCI, 2025):

Test system: 628569-122-R-J1-PDC complex spheroid viability
Assay: Anticancer human tumor 628569-122-R-J1-PDC patient-derived head and neck squamous carcinoma cell line growth inhibition [CLK]
Settings: for IC50: curve of first compound; for viability, T/C: stronger effect = lower value
Method in brief: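 Multi-cell-type spheroids combined patient-derived tumor cells with HUVEC endothelial cells and human mesenchymal stem cells. Paired agents were dosed in half-log steps down from about clinical Cmax, or from 10 microM where Cmax was unknown.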
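Note: spheroids exposed to agents for seven days before readout.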
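Throughout, for viability, T/C: 100% = DMSO vehicle control viability.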

Structure (SMILES): CC(C)CC(NC(=O)C(Cc1ccccc1)NC(=O)c1cnccn1)B(O)O (centres undefined) + CN1CCN(c2cc(C(=O)Nc3cc4cc(-c5cnn(C)c5)ccc4cn3)ccn2)CC1
- IC50 (second compound 0.0316 µM): 4.41 nM
- IC50 (second compound 0.1 µM): 1.68 nM
- IC50 (second compound 0.316 µM): < 0.949 nM
- IC50 (second compound 1 µM): < 0.949 nM
- IC50 (second compound 3.16 µM): < 0.949 nM
- IC50 (second compound 10 µM): < 0.949 nM
- viability, T/C (second compound 0.0316 µM, first compound 0.000949 µM): 83.3%
- viability, T/C (second compound 0.0316 µM, first compound 0.003 µM): 70.2%
- viability, T/C (second compound 0.0316 µM, first compound 0.00949 µM): 9.85%
- viability, T/C (second compound 0.0316 µM, first compound 0.03 µM): 8.4%
- viability, T/C (second compound 0.0316 µM, first compound 0.0949 µM): 6.4%
- viability, T/C (second compound 0.0316 µM, first compound 0.3 µM): 4.25%
- viability, T/C (second compound 0.1 µM, first compound 0.000949 µM): 62.6%
- viability, T/C (second compound 0.1 µM, first compound 0.003 µM): 37.3%
- viability, T/C (second compound 0.1 µM, first compound 0.00949 µM): 7.61%
- viability, T/C (second compound 0.1 µM, first compound 0.03 µM): 6.34%
- viability, T/C (second compound 0.1 µM, first compound 0.0949 µM): 6.04%
- viability, T/C (second compound 0.1 µM, first compound 0.3 µM): 5.02%
- viability, T/C (second compound 0.316 µM, first compound 0.000949 µM): 37.8%
- viability, T/C (second compound 0.316 µM, first compound 0.003 µM): 4.9%
- viability, T/C (second compound 0.316 µM, first compound 0.00949 µM): 10.6%
- viability, T/C (second compound 0.316 µM, first compound 0.03 µM): 4.39%
- viability, T/C (second compound 0.316 µM, first compound 0.0949 µM): 4.89%
- viability, T/C (second compound 0.316 µM, first compound 0.3 µM): 2.72%
- viability, T/C (second compound 1 µM, first compound 0.000949 µM): 9.15%
- viability, T/C (second compound 1 µM, first compound 0.003 µM): 8.04%
- viability, T/C (second compound 1 µM, first compound 0.00949 µM): 4.76%
- viability, T/C (second compound 1 µM, first compound 0.03 µM): 6.26%
- viability, T/C (second compound 1 µM, first compound 0.0949 µM): 7.32%
- viability, T/C (second compound 1 µM, first compound 0.3 µM): 5.71%
- viability, T/C (second compound 3.16 µM, first compound 0.000949 µM): 6.67%
- viability, T/C (second compound 3.16 µM, first compound 0.003 µM): 6.69%
- viability, T/C (second compound 3.16 µM, first compound 0.00949 µM): 5.84%
- viability, T/C (second compound 3.16 µM, first compound 0.03 µM): 5.55%
- viability, T/C (second compound 3.16 µM, first compound 0.0949 µM): 5.83%
- viability, T/C (second compound 3.16 µM, first compound 0.3 µM): 4.09%
- viability, T/C (second compound 10 µM, first compound 0.000949 µM): 8.8%
- viability, T/C (second compound 10 µM, first compound 0.003 µM): 1.66%
- viability, T/C (second compound 10 µM, first compound 0.00949 µM): 2.36%
- viability, T/C (second compound 10 µM, first compound 0.03 µM): 1.91%
- viability, T/C (second compound 10 µM, first compound 0.0949 µM): 4.23%
- viability, T/C (second compound 10 µM, first compound 0.3 µM): 0.93%

Structure (SMILES): CC1(C)CCC(CN2CCN(c3ccc(C(=O)NS(=O)(=O)c4ccc(NCC5CCOCC5)c([N+](=O)[O-])c4)c(Oc4cnc5[nH]ccc5c4)c3)CC2)=C(c2ccc(Cl)cc2)C1 + CN1CCN(c2cc(C(=O)Nc3cc4cc(-c5cnn(C)c5)ccc4cn3)ccn2)CC1
- IC50 (second compound 0.0316 µM): > 10000 nM
- IC50 (second compound 0.1 µM): > 10000 nM
- IC50 (second compound 0.316 µM): < 31.6 nM
- IC50 (second compound 1 µM): < 31.6 nM
- IC50 (second compound 3.16 µM): < 31.6 nM
- IC50 (second compound 10 µM): < 31.6 nM
- viability, T/C (second compound 0.0316 µM, first compound 0.0316 µM): 94%
- viability, T/C (second compound 0.0316 µM, first compound 0.1 µM): 105%
- viability, T/C (second compound 0.0316 µM, first compound 0.316 µM): 103%
- viability, T/C (second compound 0.0316 µM, first compound 1 µM): 96%
- viability, T/C (second compound 0.0316 µM, first compound 3.16 µM): 97%
- viability, T/C (second compound 0.0316 µM, first compound 10 µM): 85.6%
- viability, T/C (second compound 0.1 µM, first compound 0.0316 µM): 70.8%
- viability, T/C (second compound 0.1 µM, first compound 0.1 µM): 63.6%
- viability, T/C (second compound 0.1 µM, first compound 0.316 µM): 78.5%
- viability, T/C (second compound 0.1 µM, first compound 1 µM): 67.7%
- viability, T/C (second compound 0.1 µM, first compound 3.16 µM): 71.1%
- viability, T/C (second compound 0.1 µM, first compound 10 µM): 69.5%
- viability, T/C (second compound 0.316 µM, first compound 0.0316 µM): 36.1%
- viability, T/C (second compound 0.316 µM, first compound 0.1 µM): 29.7%
- viability, T/C (second compound 0.316 µM, first compound 0.316 µM): 41.3%
- viability, T/C (second compound 0.316 µM, first compound 1 µM): 36%
- viability, T/C (second compound 0.316 µM, first compound 3.16 µM): 28.4%
- viability, T/C (second compound 0.316 µM, first compound 10 µM): 22.4%
- viability, T/C (second compound 1 µM, first compound 0.0316 µM): 10.8%
- viability, T/C (second compound 1 µM, first compound 0.1 µM): 13.3%
- viability, T/C (second compound 1 µM, first compound 0.316 µM): 5.93%
- viability, T/C (second compound 1 µM, first compound 1 µM): 9.88%
- viability, T/C (second compound 1 µM, first compound 3.16 µM): 10.1%
- viability, T/C (second compound 1 µM, first compound 10 µM): 3.58%
- viability, T/C (second compound 3.16 µM, first compound 0.0316 µM): 8.81%
- viability, T/C (second compound 3.16 µM, first compound 0.1 µM): 8.56%
- viability, T/C (second compound 3.16 µM, first compound 0.316 µM): 6.4%
- viability, T/C (second compound 3.16 µM, first compound 1 µM): 7.84%
- viability, T/C (second compound 3.16 µM, first compound 3.16 µM): 8.73%
- viability, T/C (second compound 3.16 µM, first compound 10 µM): 3.29%
- viability, T/C (second compound 10 µM, first compound 0.0316 µM): 7.98%
- viability, T/C (second compound 10 µM, first compound 0.1 µM): 2.99%
- viability, T/C (second compound 10 µM, first compound 0.316 µM): 4.03%
- viability, T/C (second compound 10 µM, first compound 1 µM): 8.3%
- viability, T/C (second compound 10 µM, first compound 3.16 µM): 3.6%
- viability, T/C (second compound 10 µM, first compound 10 µM): 0.85%
